For 19 compounds, MIC, selectivity ratio and HC50 results are on record in ChEMBL document CHEMBL6127107, “Oleanolic acid derivatives against drug-resistant bacteria and fungi by multi-targets to avoid drug resistance” (Eur J Med Chem, 2024).

Each structure is given as a SMILES string. Values after ≈ are worked out from the molar mass of the structure shown. A value given as a limit tells only on which side of the number the result lay.

The test system of series [1] is Enterococcus faecalis. The series is described as follows: Antimicrobial activity against vancomycin resistant Enterococcus faecalis ATCC 51299. The series is classed as functional.
Series [2] deals with Staphylococcus aureus. Nature of the series: Antimicrobial activity against Staphylococcus aureus 31. It is filed as functional.
Series [3] can be described thus: Selectivity index, ratio of HC50 for hemolytic activity against Mianyang red blood cells (unknown origin) to MIC for antimicrobial activity against methicillin resistant Staphylococcus aureus 003. The settings on record: read-out: Selectivity Index. It is filed as toxicity, cell-based, RBC.
Series [4] has as its system Staphylococcus aureus. Nature of the series: Antimicrobial activity against Staphylococcus aureus 10. It is filed as functional.
Series [5] relates to Pseudomonas aeruginosa. Nature of the series: Antimicrobial activity against Pseudomonas aeruginosa. It is filed as functional.
Series [6] deals with Staphylococcus aureus. The series is described as follows: Antimicrobial activity against methicillin-resistant Staphylococcus aureus 003. It is filed as functional.
Series [7] has as its system Candida albicans. The series is described as follows: Antimicrobial activity against fluconazole-resistant Candida albicans. The series is classed as functional.
Series [8] deals with Escherichia coli. The series is described as follows: Antimicrobial activity against Escherichia coli. It is filed as functional.
Series [9] relates to Staphylococcus aureus. Nature of the series: Antimicrobial activity against methicillin-resistant Staphylococcus aureus 011. The series is classed as functional.
Series [10] can be described thus: Hemolytic activity against Mianyang red blood cells (unknown origin). It is filed as toxicity, cell-based, RBC.
Series [11] has as its system Staphylococcus aureus. Nature of the series: Antimicrobial activity against Staphylococcus aureus 29. The series is classed as functional.

Usually MIC stands for the lowest concentration found to suppress growth. A lower MIC goes with a more susceptible organism. By HC50 is commonly meant the concentration giving 50% haemolysis. High values mean less damage to red cells, low ones more damage to red cells. Consider `CC1(C)CC[C@]2(C(=O)O)CC[C@]3(C)C(=CC[C@@H]4[C@@]5(C)CC[C@H](OC(=O)c6ccccc6C(=O)O)C(C)(C)[C@@H]5CC[C@]43C)[C@@H]2C1`, for which the MIC was 16 µg/mL (≈ 26.5 µM) in [1]; 64 µg/mL (≈ 106 µM) in [2]; 16 µg/mL (≈ 26.5 µM) in [4]; more than 64 µg/mL in series [5]; 32 µg/mL (≈ 52.9 µM) in series [6]; 8 µg/mL (≈ 13.2 µM) in series [7]. Moreover, the MIC in [8] is more than 64 µg/mL; in series [9], 32 µg/mL (≈ 52.9 µM); in series [11], 32 µg/mL (≈ 52.9 µM). In series [3], the selectivity ratio is more than 32. Further, the HC50 in [10] is more than 1020 µg/mL.

As for `CC1(C)CC[C@]2(C(=O)O)CC[C@]3(C)C(=CC[C@@H]4[C@@]5(C)CC[C@H](OCC(O)CCCN)C(C)(C)[C@@H]5CC[C@]43C)[C@@H]2C1` (some centres undefined), the MIC is 8 µg/mL (≈ 14.3 µM) in series [1]; 8 µg/mL (≈ 14.3 µM) in series [2]; 4 µg/mL (≈ 7.17 µM) in series [4]; more than 64 µg/mL in series [5]; 4 µg/mL (≈ 7.17 µM) in series [6]; 4 µg/mL (≈ 7.17 µM) in [7]. The MIC in series [8] was more than 64 µg/mL; in series [9], 2 µg/mL (≈ 3.59 µM); in [11], 2 µg/mL (≈ 3.59 µM). Besides, in series [3], the selectivity ratio turned out to be 8.01. The same compound yielded an HC50 in [10] of 32 µg/mL.

Turning to `CC(=O)O[C@H]1CC[C@]2(C)[C@H]3CC=C4[C@@H]5CC(C)(C)CC[C@]5(C(=O)NCCCCCCCCN)CC[C@@]4(C)[C@]3(C)CC[C@H]2C1(C)C`, the MIC is 16 µg/mL (≈ 25.6 µM) in series [1]; 32 µg/mL (≈ 51.2 µM) in [2]; 8 µg/mL (≈ 12.8 µM) in series [4]; more than 64 µg/mL in series [5]; 8 µg/mL (≈ 12.8 µM) in [6]; 64 µg/mL (≈ 102 µM) in series [7]. For the same compound, the results for the MIC in [8], in series [9] and in series [11] were more than 64 µg/mL, 4 µg/mL (≈ 6.4 µM) and 8 µg/mL (≈ 12.8 µM), respectively. Moreover, the selectivity ratio in series [3] was determined as 7.53. Further, the HC50 in series [10] is 40.2 µg/mL.

For the compound `CC1(C)S[C@@H]2[C@H](NC(=O)[C@H](N)c3ccccc3)C(=O)N2[C@H]1C(=O)O` [AMPICILLIN], the MIC in series [1] is 2 µg/mL (≈ 5.72 µM); in series [2], 2 µg/mL (≈ 5.72 µM); in series [4] it was 2 µg/mL (≈ 5.72 µM); in series [6] it was more than 128 µg/mL; in series [9], more than 128 µg/mL; in series [11], 2 µg/mL (≈ 5.72 µM). In series [10], this compound showed an HC50 of more than 256 µg/mL.

For `CC(=O)O[C@H]1CC[C@]2(C)[C@H]3CC=C4[C@@H]5CC(C)(C)CC[C@]5(C(=O)NCCCCN)CC[C@@]4(C)[C@]3(C)CC[C@H]2C1(C)C`, the MIC was 4 µg/mL (≈ 7.03 µM) in series [1]; 8 µg/mL (≈ 14.1 µM) in series [2]; 8 µg/mL (≈ 14.1 µM) in series [4]; more than 64 µg/mL in series [5]; 4 µg/mL (≈ 7.03 µM) in [6]; 4 µg/mL (≈ 7.03 µM) in series [7]. Moreover, the MIC in series [8] is more than 64 µg/mL; in [9] it was 2 µg/mL (≈ 3.52 µM); in series [11], 8 µg/mL (≈ 14.1 µM). Further, in series [3], the selectivity ratio turned out to be 16.5. In addition, the HC50 in series [10] came to 65.8 µg/mL.

For the compound `CC1(C)CC[C@]2(C(=O)O)CC[C@]3(C)C(=CC[C@@H]4[C@@]5(C)CC[C@H](O)C(C)(C)[C@@H]5CC[C@]43C)[C@@H]2C1` [OLEANOLIC_ACID], the MIC in series [1] was 64 µg/mL (≈ 140 µM); in [2], 32 µg/mL (≈ 70.1 µM); in series [4], 64 µg/mL (≈ 140 µM); in series [6] it was 64 µg/mL (≈ 140 µM); in series [7] it was more than 64 µg/mL; in series [9] it was more than 64 µg/mL. In series [11], the MIC turned out to be 64 µg/mL (≈ 140 µM). In addition, in [3], the selectivity ratio is more than 16. The compound also showed an HC50 in series [10] of more than 1020 µg/mL.

For the compound `C[C@@H]1[C@H](O)[C@@H](C)/C=C/C=C/C=C/C=C/C=C/C=C/C=C/[C@H](O[C@@H]2O[C@H](C)[C@@H](O)[C@H](N)[C@@H]2O)C[C@@H]2O[C@](O)(C[C@@H](O)C[C@@H](O)[C@H](O)CC[C@@H](O)C[C@@H](O)CC(=O)O[C@H]1C)C[C@H](O)[C@H]2C(=O)O` [AMPHOTERICIN B], the selectivity ratio in series [3] was 29.2. In series [7], this compound registered an MIC of 1 µg/mL (≈ 1.08 µM). Further, the HC50 in series [10] came out at 29.2 µg/mL.

As to `OC(Cn1cncn1)(Cn1cncn1)c1ccc(F)cc1F` [FLUCONAZOLE], in [7], the MIC is more than 128 µg/mL. The compound further returned an HC50 in series [10] of more than 256 µg/mL.

As for `CCCCCCCCCCCCC(=O)O[C@H]1CC[C@]2(C)[C@H]3CC=C4[C@@H]5CC(C)(C)CC[C@]5(C(=O)O)CC[C@@]4(C)[C@]3(C)CC[C@H]2C1(C)C`, the MIC in series [1], in series [2], in series [4], in series [5], in [6] and in series [7] was more than 64 µg/mL each time. The MIC in [8], in [9] and in [11] was more than 64 µg/mL throughout.

Regarding `CCCOC(=O)[C@]12CCC(C)(C)C[C@H]1C1=CC[C@@H]3[C@@]4(C)CC[C@H](O)C(C)(C)[C@@H]4CC[C@@]3(C)[C@]1(C)CC2`, the MIC in series [1], in series [2], in series [4], in series [5], in series [6] and in series [7] was more than 64 µg/mL in each case. Moreover, the MIC in [8], in [9] and in series [11] was more than 64 µg/mL each time.

In the case of `CCCCCCCCCOC(=O)[C@]12CCC(C)(C)C[C@H]1C1=CC[C@@H]3[C@@]4(C)CC[C@H](O)C(C)(C)[C@@H]4CC[C@@]3(C)[C@]1(C)CC2`, the MIC in series [1], in series [2], in series [4], in [5], in series [6] and in [7] was more than 64 µg/mL throughout. Moreover, the MIC in series [8], in [9] and in series [11] was more than 64 µg/mL in each case.

With `CCNC(=O)[C@]12CCC(C)(C)C[C@H]1C1=CC[C@@H]3[C@@]4(C)CC[C@H](OC(C)=O)C(C)(C)[C@@H]4CC[C@@]3(C)[C@]1(C)CC2`, the MIC in [1], in [2], in series [4], in [5], in series [6] and in series [7] was more than 64 µg/mL each time. Moreover, the MIC in series [8], in series [9] and in series [11] was more than 64 µg/mL throughout.

For `CC(=O)O[C@H]1CC[C@]2(C)[C@H]3CC=C4[C@@H]5CC(C)(C)CC[C@]5(C(=O)N(C)C)CC[C@@]4(C)[C@]3(C)CC[C@H]2C1(C)C`, the MIC in series [1], in [2], in [4], in series [5], in series [6] and in series [7] was more than 64 µg/mL each time. Further, the MIC in series [8], in series [9] and in series [11] was more than 64 µg/mL in each case.

`CC1(C)CC[C@]2(C(=O)O)CC[C@]3(C)C(=CC[C@@H]4[C@@]5(C)CC[C@H](OCC(O)CN6CCCCC6)C(C)(C)[C@@H]5CC[C@]43C)[C@@H]2C1` (some centres undefined): the MIC in series [1], in series [2], in series [4], in series [5], in series [6] and in series [7] was more than 64 µg/mL each time. Moreover, the MIC in series [8], in series [9] and in series [11] was more than 64 µg/mL each time.

Turning to `CC(=O)O[C@H]1CC[C@]2(C)[C@H]3CC=C4[C@@H]5CC(C)(C)CC[C@]5(C(=O)NCCc5ccccc5)CC[C@@]4(C)[C@]3(C)CC[C@H]2C1(C)C`, the MIC in series [1], in series [2], in series [4], in [5], in [6] and in series [7] was more than 64 µg/mL throughout. Besides, the MIC in [8], in series [9] and in series [11] was more than 64 µg/mL in each case.

On to `CCCCCOC(=O)[C@]12CCC(C)(C)C[C@H]1C1=CC[C@@H]3[C@@]4(C)CC[C@H](O)C(C)(C)[C@@H]4CC[C@@]3(C)[C@]1(C)CC2`, for which the MIC in [1], in [2], in series [4], in series [5], in series [6] and in [7] was more than 64 µg/mL throughout. Further, the MIC in [8], in series [9] and in [11] was more than 64 µg/mL in each case.

For the compound `CC1(C)CC[C@]2(C(=O)O)CC[C@]3(C)C(=CC[C@@H]4[C@@]5(C)CC[C@H](OC(=O)c6ccccc6)C(C)(C)[C@@H]5CC[C@]43C)[C@@H]2C1`, the MIC in series [1], in [2], in [4], in series [5], in series [6] and in series [7] was more than 64 µg/mL throughout. In addition, the MIC in [8], in series [9] and in [11] was more than 64 µg/mL each time.

Take `CCCC(=O)O[C@H]1CC[C@]2(C)[C@H]3CC=C4[C@@H]5CC(C)(C)CC[C@]5(C(=O)O)CC[C@@]4(C)[C@]3(C)CC[C@H]2C1(C)C`: the MIC in [1], in series [2], in series [4], in series [5], in series [6] and in series [7] was more than 64 µg/mL in each case. The minimal inhibitory concentration (MIC) in [8], in series [9] and in series [11] was more than 64 µg/mL throughout.

Take `CC(=O)O[C@H]1CC[C@]2(C)[C@H]3CC=C4[C@@H]5CC(C)(C)CC[C@]5(C(=O)NCc5ccc(F)cc5)CC[C@@]4(C)[C@]3(C)CC[C@H]2C1(C)C`: the MIC in series [1], in series [2], in [4], in series [5], in series [6] and in series [7] was more than 64 µg/mL each time. For the same compound, the MIC in series [8], in [9] and in [11] was more than 64 µg/mL in each case.
